Source: patent publication US10689395B2, “Tricyclic fused pyridin-2-one derivatives and their use as BRD4 inhibitors” (JUBILANT BIOSYS LIMITED, priority 2015, dated 2020)
Like-named read-outs stand apart in the source and are kept apart here.

What was measured:
[1] = target: BRD4-BD1 (Homo sapiens (Human), UniProt O60885); assay: BRD4 AlphaLISA (Perkin Elmer); assay type: binding; details: 5 nM BRD4-BD1, 12 nM biotinylated substrate, read-out: BRD4_BD1 IC50_μM
Protocol: BRD4 AlphaLISA (Perkin Elmer)
Compounds were diluted by step-down dilution method (final concentration of DMSO was 1%) and added to the wells of a 384 well opti plate at desired concentrations. 5 nM BDR4-BD1 enzyme (produced in-house) and 12 nM of biotinylated substrate were added to the wells, covered and incubated at room temperature (RT) for 1 h. At the end of 1 h 250 ng of GSH acceptor beads were added to the well and incubated for 1 h at RT; then 500 ng of streptavidin donor beads were added and incubated again for 1 h at RT. Plates were read in a Pherastar reader at 680 nm excitation and 570 nm emission. As detailed above, compounds were tested for both BRD4 enzyme inhibitory activities and IC50 were determined.

[2] = test system: MV4-11 cells; assay: Anticancer activity: Alamar Blue assay, 3-day proliferation; assay type: cell-based; details: AML cell line MV4-11, 72 h, read-out: MV4-11 EC50_μM
Protocol: Anticancer Activity: Alamar Blue Assay
The impact of the compounds on cancer cell proliferation was determined using the AML cell line MV4-11 (ATCC) in a 3-day proliferation assay. MV4-11 cells were maintained in RPMI supplemented with 10% FBS at 37° C., 5% CO2. For compound testing, MV4-11 cells were plated in a 96-well black bottom plate at a density of 15,000 cells/well in 100 μL culture media and incubated at 37° C. overnight. Compound dilution series were prepared in DMSO via a 3-fold serial dilution from 100 μM to 0.005 μM. The DMSO dilution series were then diluted with media, with the final compound concentrations added to the wells ranging from 10 μM to 0.0005 μM. […] The fluorescent readings from the Alamar Blue assay were normalized to the DMSO treated cells and analyzed using the GraphPad Prism software with sigmoidal curve fitting to obtain EC50.

SMILES	IC50 [1]	EC50 ([2]; Homo sapiens)	EC50 [2]
CCNC(=O)CC1N=C(c2ccc(Cl)cc2)c2c(sc(C)c2C)-c2cn(C)c(=O)cc21 (racemic) [b, ±2-(4-(4-chlorophenyl)-2,3,9-trimethyl-8-oxo-8,9-dihydro-6H-pyrido[4,3-c]thieno[2,3-e]azepin-6-yl)-N-ethylacetamide]	2.2 nM	10 nM	–
CCNC(=O)CC1OC(c2ccc(Cl)cc2)c2c(sc(C)c2C)-c2cn(C)c(=O)cc21 (racemic) [bb, ±2-(4-(4-chlorophenyl)-2,3,9-trimethyl-8-oxo-4,6,8,9-tetrahydrothieno[2′,3′:5,6]oxepino[4,3-c]pyridin-6-yl)-N-ethylacetamide]	1 nM	–	< 0.5 nM
Cc1sc2c(c1C)C(c1ccc(Cl)cc1)=NC(CC(N)=O)c1cc(=O)n(C)cc1-2 (racemic) [e, ±2-(4-(4-chlorophenyl)-2,3,9-trimethyl-8-oxo-8,9-dihydro-6H-pyrido[4,3-c]thieno[2,3-e]azepin-6-yl)acetamide]	2 nM	7 nM	–
Cc1sc2c(c1C)C(c1ccc(Cl)cc1)OC(CC(N)=O)c1cc(=O)n(C)cc1-2 (racemic) [ee, ±2-(4-(4-chlorophenyl)-2,3,9-trimethyl-8-oxo-4,6,8,9-tetrahydrothieno[2′,3′:5,6]oxepino[4,3-c]pyridin-6-yl)acetamide]	2 nM	7 nM	–
Cc1sc2c(c1C)C(c1ccc(Cl)cc1)=NC(CC(=O)Nc1ccc(O)cc1)c1cc(=O)n(C)cc1-2 (racemic) [h, ±2-(4-(4-chlorophenyl)-2,3,9-trimethyl-8-oxo-8,9-dihydro-6H-pyrido[4,3-c]thieno[2,3-e]azepin-6-yl)-N-(4-hydroxyphenyl)acetamide]	33 nM	–	–
Cc1sc2c(c1C)C(c1ccc(Cl)cc1)OC(CCO)c1cc(=O)n(C)cc1-2 (racemic) [hh, ±4-(4-chlorophenyl)-6-(2-hydroxyethyl)-2,3,9-trimethyl-4,9-dihydrothieno[2′,3′:5,6]oxepino[4,3-c]pyridin-8(6H)-one]	17 nM	–	–
CCOC(=O)CC1N=C(c2ccc(Cl)cc2)c2nc(C)sc2-c2cn(C)c(=O)cc21 (racemic) [l, ±Ethyl 2-(4-(4-chlorophenyl)-2,9-dimethyl-8-oxo-8,9-dihydro-6H-pyrido[4,3-c]thiazolo[5,4-e]azepin-6-yl)acetate]	140 nM	–	430 nM
CCNC(=O)CC1OC(c2ccc(Cl)cc2)c2c(cnn2C)-c2cn(C)c(=O)cc21 (racemic) [ll, ±2-(4-(4-chlorophenyl)-3,9-dimethyl-8-oxo-4,6,8,9-tetrahydro-3H-pyrazolo[4′,3′:5,6]oxepino[4,3-c]pyridin-6-yl)-N-ethylacetamide]	1 nM	–	< 0.5 nM
CCNC(=O)CC1N=C(c2ccc(Cl)cc2)c2nc(C)sc2-c2cn(C)c(=O)cc21 (racemic) [m, ±2-(4-(4-chlorophenyl)-2,9-dimethyl-8-oxo-8,9-dihydro-6H-pyrido[4,3-c]thiazolo[5,4-e]azepin-6-yl)-N-ethylacetamide]	1 nM	–	140 nM
CCNC(=O)CC1N=C(CC2CC2)c2c(sc(C)c2C)-c2cn(C)c(=O)cc21 (racemic) [r, ±2-(4-(cyclopropylmethyl)-2,3,9-trimethyl-8-oxo-8,9-dihydro-6H-pyrido[4,3-c]thieno[2,3-e]azepin-6-yl)-N-ethylacetamide]	10 nM	–	157 nM
CCNC(=O)CC1N=C(c2ccc(Cl)cc2)c2cc(OC)ncc2-c2cn(C)c(=O)cc21 (racemic) [t, ±2-(7-(4-chlorophenyl)-9-methoxy-2-methyl-3-oxo-3,5-dihydro-2H-dipyrido[4,3-c:3′,4′-e]azepin-5-yl)-N-ethylacetamide]	2 nM	–	17 nM
CCOC(=O)CC1N=C(c2ccc(Cl)cc2)c2c(cnn2C)-c2cn(C)c(=O)cc21 (racemic) [w, ±Ethyl 2-(4-(4-chlorophenyl)-3,9-dimethyl-8-oxo-3,6,8,9-tetrahydropyrazolo[3,4-c]pyrido[3,4-e]azepin-6-yl)acetate]	10 nM	–	26 nM
CCNC(=O)CC1N=C(c2ccc(C#N)cc2)c2c(sc(C)c2C)-c2cn(C)c(=O)cc21 (stereo in doubt) [k, (R)-2-(4-(4-cyanophenyl)-2,3,9-trimethyl-8-oxo-8,9-dihydro-6H-pyrido[4,3-c]thieno[2,3-e]azepin-6-yl)-N-ethylacetamide]	< 0.5 nM	25 nM	–
CCNC(=O)C[C@@H]1N=C(c2ccc(Cl)cc2)c2c(cnn2C)-c2cn(C)c(=O)cc21 [z, (S)-2-(4-(4-chlorophenyl)-3,9-dimethyl-8-oxo-3,6,8,9-tetrahydropyrazolo[3,4-c]pyrido[3,4-e]azepin-6-yl)-N-ethylacetamide]	5 nM	53 nM	–
